Results published in ChEMBL document CHEMBL1212782, “Mutasynthesis of lincomycin derivatives with activity against drug-resistant staphylococci” (2010).
≈ marks a conversion by molar mass, not a printed value.

Assays:
[1] = tested on: Staphylococcus epidermidis; experiment: Antimicrobial activity against erythromycin, lincomycin, clindamycin resistant Staphylococcus epidermidis isolate 1036UL harboring ermC vgaALC gene incubated at 37 degC for 24 hrs by agar dilution method
[2] = tested on: Staphylococcus haemolyticus; experiment: Antimicrobial activity against lincomycin, clindamycin resistant Staphylococcus haemolyticus isolate 29OL harboring vgaALC gene incubated at 37 degC for 24 hrs by agar dilution method
[3] = tested on: Staphylococcus haemolyticus; experiment: Antimicrobial activity against erythromycin, lincomycin, clindamycin resistant Staphylococcus haemolyticus isolate 65OL harboring ermC vgaALC gene incubated at 37 degC for 24 hrs by agar dilution method
[4] = tested on: Staphylococcus epidermidis; experiment: Antimicrobial activity against erythromycin, lincomycin, clindamycin resistant Staphylococcus epidermidis isolate 44KR harboring ermC gene incubated at 37 degC for 24 hrs by agar dilution method
Staphylococcus aureus [5] = experiment: Antimicrobial activity against Staphylococcus aureus ATCC 29213 incubated at 37 degC for 24 hrs by agar dilution method; details: ATCC 29213, 24 h
[6] = tested on: Staphylococcus haemolyticus; experiment: Antimicrobial activity against erythromycin, lincomycin, clindamycin resistant Staphylococcus haemolyticus isolate 134PL harboring ermC gene incubated at 37 degC for 24 hrs by agar dilution method
Staphylococcus aureus [7] = experiment: Antimicrobial activity against Staphylococcus aureus isolate CIP 107907 harboring vgaA gene incubated at 37 degC for 24 hrs by agar dilution method; details: isolate CIP 107907, 24 h
[8] = tested on: Staphylococcus epidermidis; experiment: Antimicrobial activity against erythromycin, inducible lincomycin, inducible clindamycin resistant Staphylococcus epidermidis isolate 32PL harboring ermC gene incubated at 37 degC for 24 hrs by agar dilution method
[9] = tested on: Staphylococcus haemolyticus; experiment: Antimicrobial activity against erythromycin resistant Staphylococcus haemolyticus isolate 202BB harboring msrA gene incubated at 37 degC for 24 hrs by agar dilution method
[10] = tested on: Staphylococcus haemolyticus; experiment: Antimicrobial activity against erythromycin, inducible lincomycin, inducible clindamycin resistant Staphylococcus haemolyticus isolate 31UL harboring ermC gene incubated at 37 degC for 24 hrs by agar dilution method
[11] = tested on: Staphylococcus haemolyticus; experiment: Antimicrobial activity against erythromycin, lincomycin resistant Staphylococcus haemolyticus isolate 113OL harboring msrA lnuA gene incubated at 37 degC for 24 hrs by agar dilution method
[12] = tested on: Staphylococcus haemolyticus; experiment: Antimicrobial activity against lincomycin resistant Staphylococcus haemolyticus isolate 123PL harboring lnuA gene incubated at 37 degC for 24 hrs by agar dilution method
[13] = tested on: Staphylococcus epidermidis; experiment: Antimicrobial activity against lincomycin resistant Staphylococcus epidermidis isolate 102OL harboring lnuA gene incubated at 37 degC for 24 hrs by agar dilution method
[14] = tested on: Staphylococcus epidermidis; experiment: Antimicrobial activity against erythromycin resistant Staphylococcus epidermidis isolate 129OV harboring msrA gene incubated at 37 degC for 24 hrs by agar dilution method
[15] = tested on: Staphylococcus epidermidis; experiment: Antimicrobial activity against erythromycin, lincomycin, clindamycin resistant Staphylococcus epidermidis isolate 32OL harboring msrA lnuA vgaALC gene incubated at 37 degC for 24 hrs by agar dilution method

Row | Compound | MIC [1] [mg/L] | MIC [2] [mg/L] | MIC [3] [mg/L] | MIC [4] [mg/L] | MIC (Staphylococcus aureus [5]) [mg/L] | MIC [6] [mg/L] | MIC (Staphylococcus aureus [7]) [mg/L] | MIC [8] [mg/L] | MIC [9] [mg/L] | MIC [10] [mg/L] | MIC [11] [mg/L] | MIC [12] [mg/L] | MIC [13] [mg/L] | MIC [14] [mg/L] | MIC [15] [mg/L]
1 | CCCCC[C@@H]1C[C@@H](C(=O)N[C@@H]([C@H]2O[C@H](SC)[C@H](O)[C@@H](O)[C@H]2O)[C@@H](C)O)N(C)C1 | 64 (≈ 147 µM) | 32 (≈ 73.6 µM) | 128 (≈ 295 µM) | 64 (≈ 147 µM) | 0.25 (≈ 0.575 µM) | 32 (≈ 73.6 µM) | 0.5 (≈ 1.15 µM) | 0.25 (≈ 0.575 µM) | 0.25 (≈ 0.575 µM) | 0.5 (≈ 1.15 µM) | 8 (≈ 18.4 µM) | 8 (≈ 18.4 µM) | 2 (≈ 4.6 µM) | 0.25 (≈ 0.575 µM) | 64 (≈ 147 µM)
2 | CCC[C@@H]1C[C@@H](C(=O)N[C@@H]([C@H]2O[C@H](SC)[C@H](O)[C@@H](O)[C@H]2O)[C@@H](C)O)N(C)C1 [LINCOMYCIN] | > 256 | 64 (≈ 157 µM) | 128 (≈ 315 µM) | 64 (≈ 157 µM) | 1 (≈ 2.46 µM) | 32 (≈ 78.7 µM) | 4 (≈ 9.84 µM) | 1 (≈ 2.46 µM) | 1 (≈ 2.46 µM) | 1 (≈ 2.46 µM) | 128 (≈ 315 µM) | 128 (≈ 315 µM) | 64 (≈ 157 µM) | 1 (≈ 2.46 µM) | > 256
3 | CCC[C@@H]1C[C@@H](C(=O)N[C@@H]([C@H]2O[C@H](SC)[C@H](O)[C@@H](O)[C@H]2O)[C@H](C)Cl)N(C)C1 [CLINDAMYCIN] | > 16 | 16 (≈ 37.6 µM) | 4 (≈ 9.41 µM) | > 16 | 0.125 (≈ 0.294 µM) | > 16 | 0.25 (≈ 0.588 µM) | 0.125 (≈ 0.294 µM) | 0.125 (≈ 0.294 µM) | 0.5 (≈ 1.18 µM) | 1 (≈ 2.35 µM) | 2 (≈ 4.71 µM) | 1 (≈ 2.35 µM) | 0.25 (≈ 0.588 µM) | 16 (≈ 37.6 µM)
